Measured values reported in patent US20260130933A1, “PHARMACEUTICAL COMPOSITION FOR PREVENTION OR TREATMENT OF NEPHROPATHY AND/OR DIABETES MELLITUS, COMPRISING ENAVOGLIFLOZIN” (DAEWOONG PHARMACEUTICAL CO., LTD., priority 2022, published 2026).

Assay: Example 2: phase 3 trial, enavogliflozin 0.3 mg vs dapagliflozin 10 mg once a day for 24 weeks added to metformin in patients with type 2 diabetes (same efficacy, exploratory and safety endpoints)
Type: in vivo, human
Settings: for Non-inferiority (UCI < 0.35%): HbA1c change at week 24, vs dapagliflozin
Protocol: Subjects who met the inclusion/exclusion criteria were administered a placebo of the clinical trial drug under single-blind (subject blinding) conditions during a 2-week run-in period while continuing to receive metformin. […] The randomized subjects were administered two tablets of the clinical trial drug for each administration group once a day, and then visited the institution at weeks 6, 12, 18, and 24 during the 24-week administration period to conduct efficacy and safety evaluations.
• 1. Change in HbA1c at week 24 after administration of clinical trial drug compared to Visit 2 (randomization)
• 1. Change in HbA1c at each time point of weeks 6, 12, and 18 after administration of clinical trial drug compared to Visit 2 (randomization) • 2. Change in FPG at each time point of weeks 6, 12, 18, and 24 after administration of clinical trial drug compared to Visit 2 (randomization) • 3. Proportion of subjects achieving HbA1c<7% at each time point of weeks 6, 12, 18, and 24 after administration of clinical trial drug • 4. Proportion of subjects achieving HbA1c<6.5% at each time point of weeks 6, 12, 18, and 24 after administration of clinical trial drug • 5. Proportion of subjects achieving therapeutic response (HbA1c change (HbA1c at Visit 2-HbA1c at each evaluation time point)>0.5% or HbA1c<7% at each evaluation time point compared to Visit 2 (randomization)) at each time point of weeks 6, 12, 18 and 24 after administration of clinical trial drug
• 1. Change in fasting c-peptide at each time point of weeks 6, 12, 18, and 24 after administration of clinical trial drug compared to Visit 2 (randomization) • 2. Change in body weight at each time point of weeks 6, 12, 18, and 24 after administration of clinical trial drug compared to Visit 2 (randomization) • 3. Change in fasting lipid concentration (total cholesterol, LDL-C, HDL-C, and triglycerides) at each time point of weeks 6, 12, 18, and 24 after administration of clinical trial drug compared to Visit 2 (randomization) • 4. Changes in systolic or diastolic blood pressure at each time point of weeks 6, 12, 18, and 24 after administration of clinical trial drug compared to Visit 2 (randomization) • 5. Changes in β-cell function and insulin resistance measured by HOMA-β and HOMA-IR at each time point of weeks 6, 12, 18, and 24 after administration of clinical trial drug compared to Visit 2 (randomization) • 6. Changes in renal function-related indicators (UACR, UGCR) measured by UACR at each time point of weeks 6, 12, 18, and 24 after administration of clinical trial drug compared to Visit 2 (randomization) • 7. Changes in obesity-related indicators (adiponectin, leptin) at each time point of weeks 6, 12, 18, and 24 after administration of clinical trial drug compared to Visit 2 (randomization)

[1] = Baseline, modified per-protocol set 1, enavogliflozin 0.3 mg, dapagliflozin 10 mg
[2] = Baseline, per-protocol set, enavogliflozin 0.3 mg, dapagliflozin 10 mg
[3] = Week 6, PPS, enavogliflozin minus dapagliflozin

OC[C@H]1O[C@@H](c2cc(Cc3ccc(C4CC4)cc3)c(Cl)c3c2CCO3)[C@H](O)[C@@H](O)[C@@H]1O [Enavogliflozin, (2S,3R,4R,5S,6R)-2-(7-chloro-6 (4-cyclopropylbenzyl)-2,3-dihydrobenzofuran-4-yl)-6-(hydroxymethyl)tetrahydro-2H-pyran-3,4,5-triol]
Incidence of serious adverse drug reactions (24 weeks): 1 case
Incidence of adverse events or serious adverse events between the test group and the control (24 weeks, vs dapagliflozin): no statistically significant differences
Adiponectin, Mean (SD) (Baseline, PPS): 6.96 µg/mL
Adiponectin, Median (Baseline, PPS): 5.99 µg/mL
HOMA-IR, Mean (SD) (Baseline, PPS): 3.45
HOMA-IR, Median (Baseline, PPS): 2.67
HOMA-β, Mean (SD) (Baseline, PPS): 45.53
HOMA-β, Median (Baseline, PPS): 35.00
Leptin, Mean (SD) (Baseline, PPS): 12.21 ng/mL
Leptin, Median (Baseline, PPS): 8.00 ng/mL
UACR, Mean (SD) (Baseline, PPS): 38190 mg/kg
UACR, Median (Baseline, PPS): 10.10 g/kg
UGCR, Mean (SD) (Baseline, PPS): 1.54 mg/mg
UGCR, Median (Baseline, PPS): 0.14 mg/mg
HDL-C, Mean (SD) (Baseline, mPPS1): 50.94(10.85) mg/dL
HDL-C, Median (Baseline, mPPS1): 50.00 mg/dL
LDL-C, Mean (SD) (Baseline, mPPS1): 86.52(30.53) mg/dL
LDL-C, Median (Baseline, mPPS1): 83.00 mg/dL
Triglycerides, Mean (SD) (Baseline, mPPS1): 122.10(85.91) mg/dL
Triglycerides, Median (Baseline, mPPS1): 101.00 mg/dL
Diastolic blood pressure, Mean (SD) (Baseline, mPPS2): 77.04 mmHg
Diastolic blood pressure, Median (Baseline, mPPS2): 77.00 mmHg
Systolic blood pressure, Mean (SD) (Baseline, mPPS2): 129.72(13.64) mmHg
Systolic blood pressure, Median (Baseline, mPPS2): 130.00 mmHg
fasting Total cholesterol, Mean (SD) [1]: 151.43(32.91) mg/dL
fasting Total cholesterol, Median [1]: 150.00 mg/dL
FPG, Mean (SD) [2]: 145.35 mg/dL
FPG, Median [2]: 147.00 mg/dL
HbA1c, Mean (SD) [2]: 7.75%
HbA1c, Median [2]: 7.49%
body weight, Mean (SD) [2]: 70.17(11.06) kg
body weight, Median [2]: 67.40 kg
fasting c-peptide, Mean (SD) [2]: 0.72(0.29) ng/mL
fasting c-peptide, Median [2]: 0.66 ng/mL
Non-inferiority (UCI < 0.35%): Yes
Non-inferiority (UCI < 0.35%) (listed as enavogliflozin): not inferior
Adiponectin change from baseline, ANCOVA LS mean (SE) (Week 6, PPS): 0.92 µg/mL
Adiponectin change from baseline, Mean (SD) (Week 6, PPS): 0.84 µg/mL
Adiponectin change from baseline, Median (Week 6, PPS): 0.58 µg/mL
Adiponectin, Mean (SD) (Week 6, PPS): 7.8 µg/mL
Adiponectin, Median (Week 6, PPS): 6.87 µg/mL
HOMA-IR change from baseline, ANCOVA LS mean (SE) (Week 6, PPS): −1.47
HOMA-IR change from baseline, Mean (SD) (Week 6, PPS): −1.35
HOMA-IR change from baseline, Median (Week 6, PPS): −0.91
HOMA-IR, Mean (SD) (Week 6, PPS): 2.10
HOMA-IR, Median (Week 6, PPS): 1.72
HOMA-β change from baseline, ANCOVA LS mean (SE) (Week 6, PPS): 7.22
HOMA-β change from baseline, Mean (SD) (Week 6, PPS): 5.87
HOMA-β change from baseline, Median (Week 6, PPS): 8.10
HOMA-β, Mean (SD) (Week 6, PPS): 51.39
HOMA-β, Median (Week 6, PPS): 43.00
Leptin change from baseline, ANCOVA LS mean (SE) (Week 6, PPS): -2.43 ng/mL
Leptin change from baseline, Mean (SD) (Week 6, PPS): -2.54 ng/mL
Leptin change from baseline, Median (Week 6, PPS): -1.36 ng/mL
Leptin, Mean (SD) (Week 6, PPS): 9.66 ng/mL
Leptin, Median (Week 6, PPS): 5.99 ng/mL
UACR change from baseline, ANCOVA LS mean (SE) (Week 6, PPS): -12.75 g/kg
UACR change from baseline, Mean (SD) (Week 6, PPS): -11440 mg/kg
UACR change from baseline, Median (Week 6, PPS): 0.00 g/kg
UACR, Mean (SD) (Week 6, PPS): 26760 mg/kg
UACR, Median (Week 6, PPS): 11.40 g/kg
UGCR change from baseline, ANCOVA LS mean (SE) (Week 6, PPS): 65.72 mg/mg
UGCR change from baseline, Mean (SD) (Week 6, PPS): 63.13 mg/mg
UGCR change from baseline, Median (Week 6, PPS): 57.91 mg/mg
UGCR, Mean (SD) (Week 6, PPS): 64.66 mg/mg
UGCR, Median (Week 6, PPS): 58.45 mg/mg
HOMA-IR change from baseline, LS mean difference [3]: −0.16
HOMA-β change from baseline, LS mean difference [3]: 9.01
UACR change from baseline, LS mean difference [3]: -20.88 g/kg
